Measurements as given in PMC9369610, “Pro-Apoptotic and Pro-Autophagic Properties of Cardenolides from Aerial Parts of Pergularia tomentosa” (Molecules, 2022).

Legend:
[1] = test system: Caco-2 cells; assay: MTT cell viability assay, IC50 in Caco-2 cells; format: cell-based; settings: Homo sapiens, 24 h, SE less than 10% of value
Description: (§1) The human liver hepatocellular carcinoma cell line, HepG2, and the human adenocarcinoma of colon cell line, Caco-2, were cultured in Eagle’s Minimum Essential medium supplemented with 1% (v/v) non-essential amino acids, 0.2 mM L-glutamine, 50 units/mL penicillin, 50 μg/mL streptomycin and 10% (v/v) or 20% (v/v) fetal bovine serum (Sigma Aldrich, Milan, Italy) for HepG2 or Caco-2, respectively. The human embryonal lung fibroblast cell line, MRC5, was cultured in Dulbecco’s Modified Eagle medium (Sigma Aldrich, Milan, Italy) supplemented with 10% (v/v) fetal bovine serum, 0.2 mM L-glutamine, 50 units/mL penicillin and 50 μg/mL streptomycin. HUVEC cells were cultured in endothelial growth medium-2, supplemented with fetal bovine serum (2%), VEGF (0.1%), rH FGF-B (0.4%), rH EGF (0.1%), GA-1000 (0.1%), hydrocortisone (0.04%), R3-IGF-1 (0.1%), heparin (0.1%) and ascorbic acid (0.1%). Cells were maintained at 37 °C in a 5% CO2, 95% air-humidified atmosphere and passaged twice a week. Cell lines were obtained from Interlab Cell Line Collection, Istituto Nazionale per la Ricerca sul Cancro, Genoa, Italy. HUVEC were obtained from Lonza (Milan, Italy).
(§2) An MTT assay was used to analyse cell viability. Cells were seeded in 96 wells at the density of 2 × 10^4/cm^2 and, after 24 h, they were treated with P. tomentosa compounds or with the vehicle (DMSO). After a further 24 h of treatment, 0.5 mg/mL of MTT was added to the cell medium and incubated for 1.5 h at 37 °C. The resulting formazan crystals were dissolved in 100 μL of DMSO and absorbances were measured at 595 nm and 655 nm. The background signals at 655 nm were subtracted from 595 nm signals, and data were expressed as a percent of cell viability. The concentration of each compound that is required for 50% inhibition in vitro (IC50) was calculated as described in Husseini et al.. IC50 values were obtained for Caco-2, HepG2 and MRC5 cells by performing MTT assays with concentrations ranging from 0.01 μg/mL to 5 μg/mL.

[2] = test system: HepG2 cells; assay: MTT cell viability assay, IC50 in HepG2 cells; format: cell-based; settings: Homo sapiens, 24 h, SE less than 10% of value
Description: as §1, §2

[3] = test system: MRC5 cells; assay: MTT cell viability assay, IC50 in MRC5 cells; format: cell-based; settings: Homo sapiens, 24 h, SE less than 10% of value
Description: as §1, §2

[4] = test system: HepG2 cells; assay: BrdU incorporation (proliferation) assay; format: cell-based, human; settings: HepG2, 1 μM, 24 h
Description: Cell proliferation was analysed by a BrdU (Roche Diagnostics SpA, Monza, Italy) incorporation assay, as previously described. Briefly, HepG2 cells, seeded at adensity of 3 × 10^3/cm^2 on round glass cover slips, were treated for 24 h with P. tomentosa compounds at 1 μM. Then, BrdU was added to cell medium (final concentration, 100 μM) for 1 h. Cells were fixed (in 3% paraformaldehyde, 10 min), permeabilised (in 0.2% Triton X-100, 5 min) and treated with HCl 1.5 N (5 min). Finally, cover slips were incubated with a monoclonal antibody against BrdU (Sigma-Aldrich, Milan, Italy), 1:100, and with a TRITC-conjugated secondary antibody, 1:100. After staining with Hoechst, cover slips were mounted with Mowiol (Sigma, Milan, Italy). […] Images were acquired with Axiocam MRc5 and processed with ImageJ Launcher. The number of cells into S-phase was expressed as the ratio between the number of cells incorporating BrdU and the total number of cells.

[5] = test system: p53 in HepG2 cells; assay: Western blot analysis of p53 expression; format: cell-based, human; settings: HepG2, 1 μM, 24 h
Description: (§3) To analyse the protein levels of p53, caspase-3, GRP78, LC3 and p62, HepG2 cells were treated with P. tomentosa compounds (1 or 2 μM) or with DMSO for the indicated times; then, Western blot analyses were performed. Briefly, cells were lysed in RIPA buffer (20 mM Tris-HCl, pH 7.5, 150 mM NaCl, 1 mM EDTA, 1 mM dithiothreitol, 0.1% sodium dodecyl sulphate, 1% triton X-100, 1 mM orthovanadate, and a cocktail of inhibitors (Sigma-Aldrich, Milan, Italy)). After separation on a sodium dodecyl sulphate-polyacrylamide gel electrophoresis and transfer to a poly-vinylidene fluoride membrane (Euroclone, Milan, Italy), the following primary antibodies were used, at a dilution of 1:1000 in tris-buffered saline containing 1% non-fat dry milk, overnight at 4 °C: mouse anti-p53 antibody, mouse anti-MAP LC3 β antibody, mouse anti-p62 antibody (DBA, Milan, Italy), mouse anti-GRP78 antibody, and mouse anti-caspase 3 antibody (Thermo Fisher Scientific, Milan, Italy). For normalisation, a mouse anti-GAPDH antibody (Microtech, Naples, Italy) was used.

[6] = test system: HepG2 cells; assay: Scratch-wound-healing assay; format: cell-based, human; settings: HepG2, 1 μM, 24, 48 and 72 h
Description: Cells were seeded at a density of 5 × 10^4 cells/well in 24-well plates and allowed to grow for 72 h, reaching confluence. Mitomycin C (10 μg/mL) was added to inhibit proliferation, and then a sterile 2–10 μL pipette tip was used to perform a vertical scratch in the monolayer of each well. Detached cells were removed by washing with phosphate-buffered saline. Then, 300 μL of fresh medium containing P. tomentosa compounds (1 μM) or vehicle was added to each well and incubated for 72 h. Images of migrating cells were taken at 0, 24, 48 and 72 h, by using an Olympus CKX41 fluorescent microscope (Olympus Italia srl, Segrate, Italy) and elaborated by the ImageJ software. For each scratch, wound width was calculated as the average distance between the edges in four different sites. Then, reductions in wound wights at 24, 48 and 72 h were expressed as % of the width at time zero.

[7] = test system: caspase-3 in HepG2 cells; assay: Western blot of cleaved caspase-3; format: cell-based, human; settings: HepG2, 2 μM, 7 h, Western blot densitometry
Description: as §3

[8] = test system: HepG2 cells; assay: TUNEL assay; format: cell-based, human; settings: HepG2, 1 μM, 24 h
Description: Microscopic evaluation of apoptosis was performed by a TUNEL assay, using a commercial kit (Fragment End Labelling (FragEL™), […]) DNA Fragmentation Detection Kit, Sigma-Aldrich, Milan, Italy) according to the manufacturer-provided protocol, with some modifications. Briefly, cells were seeded on glass cover slips placed in 24-well plates at a density of 3.5 × 10^3/cm^2 and, after 48 h, they were treated with 1 μΜ of each compound for a further 24 h. Cells were fixed in 3% paraformaldehyde for 10 min, permeabilised in 0.2% Triton X-100 for 5 min and treated with HCl 1.5 N for 8 min. Finally, cover slips were equilibrated in equilibration buffer (10 min) and incubated with label mix containing the TdT enzyme for 1 h at 37 °C, then mounted with mounting media. Microscope observations were performed by the AxioSkop 40 fluorescent microscope. Images were acquired with Axiocam MRc5 (Carl Zeiss MicroImaging, Inc., Jena, Germany).

[9] = test system: LC3 in HepG2 cells; assay: Western blot of LC3 (LC3-I and LC3-II); format: cell-based, human; settings: HepG2, 1 μM, 24 h
Description: as §3

For `C[C@@H]1C[C@@H](O)[C@]2(O)O[C@@H]3C[C@@]4(C=O)[C@@H](CC[C@@H]5[C@@H]4CC[C@]4(C)[C@@H](C6=CC(=O)OC6)CC[C@]54O)C[C@H]3O[C@@H]2O1` [Compound 5, calactin], the IC50 [1] was 650 nM, the IC50 [2] was 127 nM and the IC50 [3] was 990 nM. The “effect on BrdU incorporation / cell cycle progression” value [4] was “significantly affected cell cycle progression”, the p53 protein level [5] was “clearly decreased the p53 amount” and the “effect on wound closure” value [6] was “interfered with the wound closure after 48 and 72 h”. The “cleaved caspase-3 (caspase-3 activation)” value [7] was “most active”, the “apoptotic nuclei (TUNEL)” value [8] was “occurrence of apoptotic nuclei” and the LC3-I level [9] was “reduction in the LC3-I form”. For the same molecule, the LC3-II level [9] was “more marked”.
